Experimental data taken from publication PMC5216056 (Nature Communications, 2017).
Where “and” joins values, the source holds several entries; their conditions need not be identical. Equal values may be shown once.

What was measured:
physchem = conditions: pH 6.5, aqueous buffer, thermodynamic from solid
in vitro [1] = conditions: both, human, microsomes, pH 7.4
in vitro [2] = conditions: male, C57BL/6J, mouse, microsomes, pH 7.4
human P-gp = human P-gp (Homo sapiens, UniProt P08183); conditions: efflux ratio
sst4 (h) = target: T1, sst4 (h) (Homo sapiens, UniProt P31391); experiment: CEREP panel; type: binding; conditions: for % inhibition sst4 (h): 10 µM
T1 construct: CEREP (contract assay)

5-HT2A (h) = target: T2, 5-HT2A (h) (Homo sapiens, UniProt P28223); experiment: CEREP panel; type: binding; conditions: for % inhibition 5-HT2A (h): 10 µM
T2 construct: CEREP (contract assay)

D1 (h) = target: T3, D1 (h) (Homo sapiens, UniProt P21728); experiment: CEREP panel; type: binding
T3 construct: CEREP (contract assay)

FP (h) = target: T4, FP (h) (Homo sapiens, UniProt P43088); experiment: CEREP panel; type: binding; conditions: for % inhibition FP (h): 10 µM
T4 construct: CEREP (contract assay)

beta 2 (h) = target: T5, beta 2 (h) (Homo sapiens, UniProt P07550); experiment: CEREP panel; type: binding; conditions: 10 µM
T5 construct: CEREP

mCB2R = mCB2R (Mus musculus, UniProt P47936); experiment: Operational analysis of biased signalling
Chain of mCB2R (P47936 whole entry): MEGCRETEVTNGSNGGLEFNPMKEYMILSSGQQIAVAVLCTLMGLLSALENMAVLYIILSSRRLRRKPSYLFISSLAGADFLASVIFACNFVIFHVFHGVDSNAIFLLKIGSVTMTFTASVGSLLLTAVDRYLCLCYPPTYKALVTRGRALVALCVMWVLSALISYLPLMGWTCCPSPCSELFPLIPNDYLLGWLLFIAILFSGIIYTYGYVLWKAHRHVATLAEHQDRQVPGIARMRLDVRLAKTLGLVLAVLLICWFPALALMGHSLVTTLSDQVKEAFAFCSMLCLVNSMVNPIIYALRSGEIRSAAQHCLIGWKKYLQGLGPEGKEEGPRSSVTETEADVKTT

T1 sequence (P31391 whole entry): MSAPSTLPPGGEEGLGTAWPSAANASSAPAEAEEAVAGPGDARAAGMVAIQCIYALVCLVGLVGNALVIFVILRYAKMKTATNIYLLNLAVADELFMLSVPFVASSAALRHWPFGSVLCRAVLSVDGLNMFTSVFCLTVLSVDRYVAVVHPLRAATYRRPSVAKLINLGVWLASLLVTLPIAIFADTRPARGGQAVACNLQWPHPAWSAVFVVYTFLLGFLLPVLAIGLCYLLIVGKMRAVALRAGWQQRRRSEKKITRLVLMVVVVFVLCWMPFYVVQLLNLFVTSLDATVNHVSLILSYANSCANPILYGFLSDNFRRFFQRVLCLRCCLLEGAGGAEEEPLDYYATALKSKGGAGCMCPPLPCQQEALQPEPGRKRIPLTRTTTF
T2 sequence (P28223 whole entry): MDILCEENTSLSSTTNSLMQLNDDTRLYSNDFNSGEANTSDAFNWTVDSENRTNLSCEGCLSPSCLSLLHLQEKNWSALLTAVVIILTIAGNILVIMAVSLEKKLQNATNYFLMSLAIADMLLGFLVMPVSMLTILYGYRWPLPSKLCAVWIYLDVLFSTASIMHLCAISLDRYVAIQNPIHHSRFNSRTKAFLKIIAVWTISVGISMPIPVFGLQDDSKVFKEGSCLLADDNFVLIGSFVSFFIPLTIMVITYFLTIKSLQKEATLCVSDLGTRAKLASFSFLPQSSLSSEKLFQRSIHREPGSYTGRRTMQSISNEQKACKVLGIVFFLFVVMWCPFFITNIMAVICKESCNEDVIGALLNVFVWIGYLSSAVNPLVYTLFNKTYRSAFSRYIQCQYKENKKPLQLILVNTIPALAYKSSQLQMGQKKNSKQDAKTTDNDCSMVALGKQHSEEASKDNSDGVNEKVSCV
T4 sequence (P43088 whole entry): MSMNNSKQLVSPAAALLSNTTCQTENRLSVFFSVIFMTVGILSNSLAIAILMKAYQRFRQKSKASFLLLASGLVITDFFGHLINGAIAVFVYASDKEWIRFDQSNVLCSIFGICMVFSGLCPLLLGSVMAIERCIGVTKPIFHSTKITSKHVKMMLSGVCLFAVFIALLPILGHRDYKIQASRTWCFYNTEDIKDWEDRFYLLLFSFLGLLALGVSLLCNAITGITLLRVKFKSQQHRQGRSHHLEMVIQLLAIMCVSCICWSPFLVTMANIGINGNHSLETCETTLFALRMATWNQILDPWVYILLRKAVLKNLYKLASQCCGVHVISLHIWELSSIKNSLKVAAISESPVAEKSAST
Chain of human P-gp (P08183 whole entry): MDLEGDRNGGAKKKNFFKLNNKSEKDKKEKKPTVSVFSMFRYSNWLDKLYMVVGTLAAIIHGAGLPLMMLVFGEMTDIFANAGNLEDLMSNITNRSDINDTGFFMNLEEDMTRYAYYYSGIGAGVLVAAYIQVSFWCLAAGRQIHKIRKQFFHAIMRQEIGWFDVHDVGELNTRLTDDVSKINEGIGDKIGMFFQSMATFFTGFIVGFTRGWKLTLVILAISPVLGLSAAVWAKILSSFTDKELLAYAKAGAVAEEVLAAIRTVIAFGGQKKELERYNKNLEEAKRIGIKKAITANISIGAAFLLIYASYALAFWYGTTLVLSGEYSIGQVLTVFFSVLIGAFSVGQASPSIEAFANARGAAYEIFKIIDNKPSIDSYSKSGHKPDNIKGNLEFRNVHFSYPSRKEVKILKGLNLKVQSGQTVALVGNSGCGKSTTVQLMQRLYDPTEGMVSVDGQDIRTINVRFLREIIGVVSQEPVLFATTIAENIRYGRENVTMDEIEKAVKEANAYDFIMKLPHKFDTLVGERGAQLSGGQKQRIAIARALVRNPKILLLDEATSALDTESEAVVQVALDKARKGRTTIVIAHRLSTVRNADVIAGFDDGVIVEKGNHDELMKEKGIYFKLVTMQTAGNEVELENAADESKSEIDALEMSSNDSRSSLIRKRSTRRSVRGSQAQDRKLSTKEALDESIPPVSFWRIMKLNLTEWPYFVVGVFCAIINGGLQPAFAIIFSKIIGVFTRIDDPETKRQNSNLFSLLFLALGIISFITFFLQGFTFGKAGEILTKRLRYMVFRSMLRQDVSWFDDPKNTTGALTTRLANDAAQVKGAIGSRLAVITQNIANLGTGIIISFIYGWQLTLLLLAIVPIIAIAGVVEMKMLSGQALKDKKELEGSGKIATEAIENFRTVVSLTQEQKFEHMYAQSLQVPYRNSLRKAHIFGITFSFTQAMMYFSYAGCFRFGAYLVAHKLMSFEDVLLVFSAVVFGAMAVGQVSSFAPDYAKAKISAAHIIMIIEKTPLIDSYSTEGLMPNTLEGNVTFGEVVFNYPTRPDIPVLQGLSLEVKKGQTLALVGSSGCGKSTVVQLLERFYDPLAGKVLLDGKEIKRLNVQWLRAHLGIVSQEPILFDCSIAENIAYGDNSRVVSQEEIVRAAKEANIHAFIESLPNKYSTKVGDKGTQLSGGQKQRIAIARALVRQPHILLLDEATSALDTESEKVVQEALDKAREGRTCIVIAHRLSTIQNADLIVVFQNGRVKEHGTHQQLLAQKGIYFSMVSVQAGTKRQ
T3 sequence (P21728 whole entry): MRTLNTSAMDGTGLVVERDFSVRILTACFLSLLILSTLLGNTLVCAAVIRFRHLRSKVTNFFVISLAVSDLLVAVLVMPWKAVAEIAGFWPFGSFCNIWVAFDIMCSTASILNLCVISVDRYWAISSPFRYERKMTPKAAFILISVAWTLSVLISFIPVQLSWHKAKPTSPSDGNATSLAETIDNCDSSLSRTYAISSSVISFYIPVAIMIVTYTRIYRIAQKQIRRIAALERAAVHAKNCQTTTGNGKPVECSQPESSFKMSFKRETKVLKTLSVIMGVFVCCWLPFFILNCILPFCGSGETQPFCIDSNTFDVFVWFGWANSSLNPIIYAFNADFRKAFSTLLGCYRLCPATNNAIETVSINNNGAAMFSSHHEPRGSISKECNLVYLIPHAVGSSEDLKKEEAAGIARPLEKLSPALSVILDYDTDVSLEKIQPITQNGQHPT
T5 sequence (P07550 whole entry): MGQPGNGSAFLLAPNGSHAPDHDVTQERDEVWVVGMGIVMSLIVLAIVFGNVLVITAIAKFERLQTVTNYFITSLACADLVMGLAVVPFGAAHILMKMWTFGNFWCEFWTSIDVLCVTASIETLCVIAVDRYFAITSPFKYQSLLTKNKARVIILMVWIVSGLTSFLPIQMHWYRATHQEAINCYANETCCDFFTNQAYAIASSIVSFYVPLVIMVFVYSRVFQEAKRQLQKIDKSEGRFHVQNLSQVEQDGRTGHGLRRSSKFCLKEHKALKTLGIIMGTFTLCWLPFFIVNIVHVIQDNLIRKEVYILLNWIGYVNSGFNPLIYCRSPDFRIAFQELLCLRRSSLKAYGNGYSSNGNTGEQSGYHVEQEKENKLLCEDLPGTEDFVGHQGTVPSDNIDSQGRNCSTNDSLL

## CCCCC/C=C\C/C=C\C/C=C\C/C=C\CCCC(=O)OC(CO)CO [2-AG, 2-arachidonoyl glycerol]
physchem
  solubility kinetic: < 0.5 µg/mL and < 1.3 µM
In vitro [1]
  microsomal CLint: 13 µL/min/mg
In vitro [2]
  microsomal CLint: 12 µL/min/mg

## CN1CCCC[C@H]1Cn1cc(C(=O)c2cc([N+](=O)[O-])ccc2I)c2ccccc21 [(S)-AM1241]
other
  Plasma protein binding mouse: 1.2 %free
Human P-gp
  P-gp (ER) human: 2.7
sst4 (h)
  % inhibition sst4 (h): 63%
5-HT2A (h)
  % inhibition 5-HT2A (h): 67%

## Cc1c(C(=O)NN2CCCCC2)nn(-c2ccc(Cl)cc2Cl)c1-c1ccc(I)cc1 [AM251]
D1 (h); 10 µM
  % inhibition D1 (h): 58%
sst4 (h)
  % inhibition sst4 (h): 51%
FP (h)
  % inhibition FP (h): 94%

## COc1ccc(C(=O)c2c(C)n(CCN3CCOCC3)c3cc(I)ccc23)cc1 [AM630]
other
  Plasma protein binding mouse: 0.4 %free
Human P-gp
  P-gp (ER) human: 1.3
FP (h)
  % inhibition FP (h): 66%
Beta 2 (h)
  % inhibition beta 2 (h): 11%
5-HT2A (h)
  % inhibition 5-HT2A (h): 70%

## CCCCC/C=C\C/C=C\C/C=C\C/C=C\CCCC(=O)NCCO [Anandamide, N-arachidonoylethanolamine]
physchem
  solubility kinetic: < 1.1 µg/mL and < 3.2 µM
In vitro [1]
  microsomal CLint: 47 µL/min/mg
In vitro [2]
  microsomal CLint: 222 µL/min/mg

## CCCCCCC(C)(C)c1ccc([C@@H]2C[C@H](O)CC[C@H]2CCCO)c(O)c1 [CP55940]
mCB2R
  GTPγS-cAMP bias factor (BF): 1
  GTPγS-cAMP ΔΔlogR: 0 ± 0.21
  LogR GTPγS: 7.82 ± 0.05
  LogR cAMP: 10.52 ± 0.14
  LogR β-AR: 8.0 ± 0.06
  β-AR-GTPγS bias factor (BF): 1
  β-AR-GTPγS ΔΔlogR: 0 ± 0.10
  β-AR-cAMP bias factor (BF): 1
  β-AR-cAMP ΔΔlogR: 0 ± 0.21
mCB2R; reference CP55940
  ΔLogR GTPγS: 0 ± 0.07
  ΔLogR cAMP: 0 ± 0.20
  ΔLogR β-AR: 0 ± 0.08
mCB2R; relative effectiveness
  RE GTPγS: 1.00
  RE cAMP: 1.00
  RE β-AR: 1.00
D1 (h)
  inhibition at 10 µM: 77%
In vitro [1]
  microsomal CLint: 80 µL/min/mg
In vitro [2]
  microsomal CLint: 172 µL/min/mg
sst4 (h)
  inhibition at 10 µM: 63%
FP (h)
  inhibition at 10 µM: 100%
5-HT2A (h)
  inhibition at 10 µM: 95%
